Assay results published in PubChem BioAssay AID256 (DTP/NCI, 2004).
Where “and” joins values, the source holds several entries; their conditions need not be identical. Equal values may be shown once. Inconclusive results and toxic doses are left out. The calls were made as follows: active = survival T/C of 150% or more; inactive = T/C below 125% in these data.

Tested on: CD2F1 mice, L1210 leukemia ip, survival T/C
Assay: NCI In Vivo Anticancer Drug Screen. Data for tumor model L1210 Leukemia (intraperitoneal) in CD2F1 (CDF1) mice
Details: higher = longer survival
Outline: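 Vehicle-treated tumor-bearing mice served as controls (C) for compound-treated mice (T). Reported figure is T divided by C.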

[1] = endpoint: mean survival time, dose: 75.0 mg/kg/injection, schedule: Q01DX001 (ip), vehicle: saline
[2] = endpoint: mean survival time, dose: 50.0 mg/kg/injection, schedule: Q01DX001 (ip), vehicle: saline with Tween-80
[3] = endpoint: mean survival time, dose: 100.0 mg/kg/injection, schedule: Q01DX001 (ip), vehicle: saline with Tween-80
[4] = endpoint: mean survival time, dose: 200.0 mg/kg/injection, schedule: Q01DX001 (ip), vehicle: saline with Tween-80
[5] = endpoint: mean survival time, dose: 100.0 mg/kg/injection, schedule: Q01DX009 (ip), vehicle: saline with Tween-80
[6] = endpoint: mean survival time, dose: 200.0 mg/kg/injection, schedule: Q01DX009 (ip), vehicle: saline with Tween-80
[7] = endpoint: mean survival time, dose: 400.0 mg/kg/injection, schedule: Q01DX009 (ip), vehicle: saline with Tween-80
[8] = endpoint: mean survival time, dose: 100.0 mg/kg/injection, schedule: Q01DX001 (ip), vehicle: saline
[9] = endpoint: mean survival time, dose: 400.0 mg/kg/injection, schedule: Q01DX001 (ip), vehicle: saline
[10] = endpoint: mean survival time, dose: 50.0 mg/kg/injection, schedule: Q04DX003 (ip), vehicle: saline with Tween-80
[11] = endpoint: mean survival time, dose: 100.0 mg/kg/injection, schedule: Q04DX003 (ip), vehicle: saline with Tween-80
[12] = endpoint: mean survival time, dose: 200.0 mg/kg/injection, schedule: Q04DX003 (ip), vehicle: saline with Tween-80
[13] = endpoint: mean survival time, dose: 400.0 mg/kg/injection, schedule: Q04DX003 (ip), vehicle: saline with Tween-80

Measured: T/C

CC(=O)/C(=C\c1ccc(Cl)c(Cl)c1)C(=O)CCN(C)C
inactive: endpoint: median survival time, dose: 12.5 mg/kg/injection, schedule: Q01DX009 (ip), vehicle: saline 113 % of control and 98 % of control | endpoint: median survival time, dose: 25.0 mg/kg/injection, schedule: Q01DX009 (ip), vehicle: saline 95 % of control and 104 % of control and 109 % of control | endpoint: median survival time, dose: 50.0 mg/kg/injection, schedule: Q01DX009 (ip), vehicle: saline 113 % of control and 115 % of control and 110 % of control | endpoint: median survival time, dose: 100.0 mg/kg/injection, schedule: Q01DX009 (ip), vehicle: saline 97 % of control and 105 % of control

O=C(CBr)CC(O)(C(F)(F)F)C(F)(F)F
inactive: endpoint: mean survival time, dose: 12.5 mg/kg/injection, schedule: Q04DX003 (ip), vehicle: saline 98 % of control

CC(C)CC(C)NCCO (stereo not given)
inactive: [1] 98 % of control | endpoint: mean survival time, dose: 150.0 mg/kg/injection, schedule: Q01DX001 (ip), vehicle: saline 100 % of control

Nc1nc(N)c2nc(CSc3ccc(C(=O)NC(CCC(=O)O)C(=O)O)cc3)cnc2n1 (stereo not given)
inactive: endpoint: mean survival time, dose: 1.5 mg/kg/injection, schedule: Q01DX009 (ip), vehicle: distilled water + Tween-80 96 % of control | endpoint: mean survival time, dose: 3.0 mg/kg/injection, schedule: Q01DX009 (ip), vehicle: distilled water + Tween-80 86 % of control | endpoint: mean survival time, dose: 6.0 mg/kg/injection, schedule: Q01DX009 (ip), vehicle: distilled water + Tween-80 100 % of control and 101 % of control | endpoint: mean survival time, dose: 12.0 mg/kg/injection, schedule: Q01DX009 (ip), vehicle: distilled water + Tween-80 115 % of control and 110 % of control | endpoint: mean survival time, dose: 24.0 mg/kg/injection, schedule: Q01DX009 (ip), vehicle: distilled water + Tween-80 117 % of control and 120 % of control

C=CC(C)(C)S(=O)[O-].[C-]#[O+].[C-]#[O+].[C-]#[O+].[Mn].[c-]1[c-][c-][cH-][c-]1
inactive: endpoint: mean survival time, dose: 25.0 mg/kg/injection, schedule: Q04DX002 (ip), vehicle: saline with Tween-80 93 % of control | endpoint: mean survival time, dose: 50.0 mg/kg/injection, schedule: Q04DX002 (ip), vehicle: saline with Tween-80 86 % of control | endpoint: mean survival time, dose: 100.0 mg/kg/injection, schedule: Q04DX002 (ip), vehicle: saline with Tween-80 93 % of control

O=C1C(Br)=CC2C1C1C=CC2(Br)C1=O (stereo not given)
inactive: [2] 109 % of control | [3] 103 % of control | [4] 101 % of control

CCN1/C(=C/C(C)=C/c2sc3ccc4ccccc4c3[n+]2CC)Sc2ccc3ccccc3c21
inactive: endpoint: mean survival time, dose: 0.02 mg/kg/injection, schedule: Q01DX009 (ip), vehicle: Klucel (hydroxypropylcellulose) (HPC) 101 % of control | endpoint: mean survival time, dose: 0.03 mg/kg/injection, schedule: Q01DX009 (ip), vehicle: Klucel (hydroxypropylcellulose) (HPC) 100 % of control | endpoint: mean survival time, dose: 0.05 mg/kg/injection, schedule: Q01DX009 (ip), vehicle: Klucel (hydroxypropylcellulose) (HPC) 113 % of control and 97 % of control | endpoint: mean survival time, dose: 0.1 mg/kg/injection, schedule: Q01DX009 (ip), vehicle: Klucel (hydroxypropylcellulose) (HPC) 100 % of control and 110 % of control | endpoint: mean survival time, dose: 0.2 mg/kg/injection, schedule: Q01DX009 (ip), vehicle: Klucel (hydroxypropylcellulose) (HPC) 103 % of control and 104 % of control | endpoint: mean survival time, dose: 0.4 mg/kg/injection, schedule: Q01DX009 (ip), vehicle: Klucel (hydroxypropylcellulose) (HPC) 105 % of control and 107 % of control | endpoint: mean survival time, dose: 0.8 mg/kg/injection, schedule: Q01DX009 (ip), vehicle: Klucel (hydroxypropylcellulose) (HPC) 119 % of control and 104 % of control

COc1cccc(OC)c1OC(=O)/C=C/C(=O)Oc1c(OC)cccc1OC
inactive: [5] 96 % of control | [6] 96 % of control | [7] 98 % of control

NCc1ccc(OCc2nc(N)nc(N)c2-c2ccc(Cl)c(Cl)c2)cc1
inactive: [3] 92 % of control | [4] 91 % of control

COc1cc2cc(c1Cl)N(C)C(=O)CC(OC(=O)CC(C)C)C1(C)OC1C(C)C1CC(O)(NC(=O)O1)C(OC)/C=C/C=C(C)C2 (stereo not given)
inactive: endpoint: mean survival time, dose: 3.8 micrograms/kg/injection, schedule: Q01DX009 (ip), vehicle: saline + alcohol 103 % of control | endpoint: mean survival time, dose: 7.5 micrograms/kg/injection, schedule: Q01DX009 (ip), vehicle: saline + alcohol 103 % of control | endpoint: mean survival time, dose: 15.0 micrograms/kg/injection, schedule: Q01DX009 (ip), vehicle: saline + alcohol 112 % of control | endpoint: mean survival time, dose: 30.0 micrograms/kg/injection, schedule: Q01DX009 (ip), vehicle: saline + alcohol 112 % of control | endpoint: mean survival time, dose: 60.0 micrograms/kg/injection, schedule: Q01DX009 (ip), vehicle: saline + alcohol 111 % of control

O=C(N/N=C\c1cc(Cl)ccc1[N+](=O)[O-])c1ccccc1
inactive: endpoint: mean survival time, dose: 100.0 mg/kg/injection, schedule: Q01DX009 (ip), vehicle: Klucel (hydroxypropylcellulose) (HPC) 100 % of control | endpoint: mean survival time, dose: 200.0 mg/kg/injection, schedule: Q01DX009 (ip), vehicle: Klucel (hydroxypropylcellulose) (HPC) 91 % of control | endpoint: mean survival time, dose: 400.0 mg/kg/injection, schedule: Q01DX009 (ip), vehicle: Klucel (hydroxypropylcellulose) (HPC) 94 % of control

CC(OC(=O)c1ccc([N+](=O)[O-])cc1)C(C)(C)C (stereo not given)
inactive: [8] 98 % of control | endpoint: mean survival time, dose: 200.0 mg/kg/injection, schedule: Q01DX001 (ip), vehicle: saline 100 % of control | [9] 96 % of control

Clc1nc2n[nH]nc2nc1Cl
inactive: endpoint: mean survival time, dose: 3.13 mg/kg/injection, schedule: Q01DX009 (ip), vehicle: saline 97 % of control | endpoint: mean survival time, dose: 6.25 mg/kg/injection, schedule: Q01DX009 (ip), vehicle: saline 100 % of control | endpoint: mean survival time, dose: 12.5 mg/kg/injection, schedule: Q01DX009 (ip), vehicle: saline 95 % of control

O=C1C(=O)C(c2ccccc2)(c2ccccc2)c2cc(-c3ccccc3)c(-c3ccccc3)cc21
inactive: endpoint: mean survival time, dose: 25.0 mg/kg/injection, schedule: Q04DX003 (ip), vehicle: saline with Tween-80 93 % of control | [10] 89 % of control | [11] 93 % of control

Cc1ccc(S(=O)(=O)N(C)C)cc1NC1=NCCO1
inactive: [10] 95 % of control | [11] 95 % of control | [12] 90 % of control | [13] 90 % of control

O=C1OC(c2ccc(O)cc2)(c2ccc(O)cc2)c2ccccc21
inactive: [5] 95 % of control | [11] 107 % of control | [6] 91 % of control | [12] 94 % of control | [7] 89 % of control | [13] 93 % of control

C=CCOc1ccc(Cl)cc1
inactive: endpoint: mean survival time, dose: 100.0 mg/kg/injection, schedule: Q01DX001 (ip), vehicle: Klucel (hydroxypropylcellulose) (HPC) 108 % of control | endpoint: mean survival time, dose: 200.0 mg/kg/injection, schedule: Q01DX001 (ip), vehicle: Klucel (hydroxypropylcellulose) (HPC) 92 % of control | endpoint: mean survival time, dose: 400.0 mg/kg/injection, schedule: Q01DX001 (ip), vehicle: Klucel (hydroxypropylcellulose) (HPC) 100 % of control

NC(=O)c1c[n+](Cc2ccccc2)ccn1
inactive: [1] 104 % of control

N=c1c2ccccc2nnn1Cc1ccccc1
inactive: [3] 98 % of control | [4] 96 % of control | endpoint: mean survival time, dose: 400.0 mg/kg/injection, schedule: Q01DX001 (ip), vehicle: saline with Tween-80 93 % of control

CCc1c(C)c(C)cc(S(=O)(=O)O)c1C
inactive: endpoint: mean survival time, dose: 50.0 mg/kg/injection, schedule: Q01DX009 (ip), vehicle: saline with Tween-80 104 % of control | [5] 93 % of control | [11] 101 % of control | [6] 89 % of control | [12] 87 % of control

CC(=O)O.[Th]
inactive: [8] 92 % of control | [9] 92 % of control

CCCCCC(O)C1CCCCC1C (stereo not given)
inactive: [11] 105 % of control | [12] 102 % of control | [13] 90 % of control

CC(C)(C)OOC(=O)Nc1ccc(Cl)cc1
inactive: endpoint: mean survival time, dose: 25.0 mg/kg/injection, schedule: Q01DX001 (ip), vehicle: saline with Tween-80 88 % of control | [2] 92 % of control | [3] 88 % of control

NCc1cn(C2OC(CO)C(O)C2O)c2ncnc(N)c12 (stereo not given)
inactive: endpoint: mean survival time, dose: 3.13 mg/kg/injection, schedule: Q01DX005 (ip), vehicle: water 118 % of control | endpoint: mean survival time, dose: 6.25 mg/kg/injection, schedule: Q01DX005 (ip), vehicle: water 95 % of control

CCC[CH2][Sn]([CH2]CCC)([n]1cncn1)[n]1cncn1
inactive: endpoint: mean survival time, dose: 12.5 mg/kg/injection, schedule: Q04DX003 (ip), vehicle: saline with Tween-80 105 % of control
